{"source": "paper PMC6270209", "about": "“Synthesis, Antimycobacterial Activity and In Vitro Cytotoxicity of 5-Chloro-N-phenylpyrazine-2-carboxamides” (Molecules, 2013)", "origin": "cited, not measured here", "system": "M. tbc strains (PZA-sensitive, PZA-resistant)", "design": "method as in PMID 9527809", "details": "cited from earlier work", "data": [{"smiles": "NC(=O)c1cnc(Cl)cn1", "note": "[Compound 5-Cl-PZA, 5-chloropyrazine-2-carboxamide, reference compound]", "values": [{"measurement": "MIC for PZA-resistant strains", "setting": "PZA-resistant strains", "value": "8 to 64", "unit": "µg/mL"}, {"measurement": "MIC for PZA-sensitive M. tbc strains", "setting": "PZA-sensitive strains", "value": "8 to 32", "unit": "µg/mL"}]}]}
